# Measurements published in ChEMBL document CHEMBL1201862, “PubChem BioAssay data set” (2004).
#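 These data come from cells grown in 96-well plates and exposed to compound for 48 hours at five concentrations. GI50 marks 50% less growth.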 Active and inactive are the calls of the source. No stated cut-off is given here; in the data, active = GI50 up to about 1.1 µM and inactive = higher.
# Legend:
# Assay in all cases: NCI tumour cell line growth inhibition, 48 h
# BT-549 = tested on: BT-549
# DU-145 = tested on: DU-145
# HCT-116 = tested on: HCT-116
# HOP-62 = tested on: HOP-62
# HT-29 = tested on: HT-29
# K562 = tested on: K562
# LOX IMVI = tested on: LOX IMVI
# MCF7 = tested on: MCF7
# Malme-3M = tested on: Malme-3M
# OVCAR-3 = tested on: OVCAR-3
# OVCAR-4 = tested on: OVCAR-4
# OVCAR-8 = tested on: OVCAR-8
# PC-3 = tested on: PC-3
# SF-295 = tested on: SF-295
# SK-MEL-2 = tested on: SK-MEL-2
# SK-MEL-5 = tested on: SK-MEL-5
# SK-OV-3 = tested on: SK-OV-3
# SN12C = tested on: SN12C
# SR = tested on: SR
# HOP-92 = tested on: HOP-92
SMILES,GI50 (BT-549),GI50 (DU-145),GI50 (HCT-116),GI50 (HOP-62),GI50 (HT-29),GI50 (K562),GI50 (LOX IMVI),GI50 (MCF7),GI50 (Malme-3M),GI50 (OVCAR-3),GI50 (OVCAR-4),GI50 (OVCAR-8),GI50 (PC-3),GI50 (SF-295),GI50 (SK-MEL-2),GI50 (SK-MEL-5),GI50 (SK-OV-3),GI50 (SN12C),GI50 (SR),GI50 (HOP-92)
CC(C)CN1CN(c2ccccc2)C2(CCN(CC(C)(c3ccc(F)cc3)C3OCCO3)CC2)C1=O (stereo not drawn),6.56 µM (inactive),4.1 µM (inactive),4.51 µM (inactive),3.45 µM (inactive),1.73 µM (inactive),3.08 µM (inactive),2.08 µM (inactive),4.11 µM (inactive),4.89 µM (inactive),10.3 µM (inactive),5.6 µM (inactive),10.1 µM (inactive),3.55 µM (inactive),3.87 µM (inactive),2.89 µM (inactive),2.02 µM (inactive),3.89 µM (inactive),5.75 µM (inactive),2.77 µM (inactive),–
CSCCC(NC(=O)Cc1ccc(C(=O)c2ccccc2)cc1)C(=O)O (stereo not drawn),> 100 µM (inactive),> 100 µM (inactive),> 100 µM (inactive),> 100 µM (inactive),> 100 µM (inactive),> 100 µM (inactive),> 100 µM (inactive),> 100 µM (inactive),> 100 µM (inactive),> 100 µM (inactive),> 100 µM (inactive),> 100 µM (inactive),> 100 µM (inactive),> 100 µM (inactive),> 100 µM (inactive),> 100 µM (inactive),> 100 µM (inactive),> 100 µM (inactive),–,> 100 µM (inactive)
CCCCOC(=O)C1CN2C=CC=NC2=NC1(C(F)(F)F)C(F)(F)F (stereo not drawn),> 100 µM (inactive),> 100 µM (inactive),> 100 µM (inactive),> 100 µM (inactive),> 100 µM (inactive),> 100 µM (inactive),> 100 µM (inactive),> 100 µM (inactive),> 100 µM (inactive),> 100 µM (inactive),> 100 µM (inactive),> 100 µM (inactive),> 100 µM (inactive),> 100 µM (inactive),> 100 µM (inactive),> 100 µM (inactive),> 100 µM (inactive),> 100 µM (inactive),–,> 100 µM (inactive)
CC(=O)OC1CC(O)CC2=CCC3C4CCC(C(C)(O)C(O)CC5COC(=O)C5C)C4(C)CCC3C21C (stereo not drawn),> 25 µM (inactive),> 25 µM (inactive),15.2 µM (inactive),> 25 µM (inactive),> 25 µM (inactive),18.4 µM (inactive),> 25 µM (inactive),> 25 µM (inactive),–,> 25 µM (inactive),> 25 µM (inactive),> 25 µM (inactive),> 25 µM (inactive),> 25 µM (inactive),> 25 µM (inactive),7.66 µM (inactive),> 25 µM (inactive),> 25 µM (inactive),13.6 µM (inactive),> 25 µM (inactive)
c1ccc(NN=C(c2ccccn2)c2ccccn2)nc1,6.18 µM (inactive),0.331 µM (active),0.0785 µM (active),0.346 µM (active),< 0.01 µM (active),0.463 µM (active),0.269 µM (active),< 0.0245 µM (active),0.0653 µM (active),< 0.0217 µM (active),0.213 µM (active),0.0384 µM (active),0.191 µM (active),0.423 µM (active),0.49 µM (active),0.0893 µM (active),0.369 µM (active),0.142 µM (active),–,0.488 µM (active)
O=CNc1ccc2c(c1)C(=O)c1ccccc1-2,> 100 µM (inactive),57.8 µM (inactive),37.8 µM (inactive),90.2 µM (inactive),49 µM (inactive),81.3 µM (inactive),48.8 µM (inactive),20.8 µM (inactive),–,> 100 µM (inactive),> 100 µM (inactive),50.9 µM (inactive),68.2 µM (inactive),> 100 µM (inactive),> 100 µM (inactive),> 100 µM (inactive),> 100 µM (inactive),30.3 µM (inactive),37.2 µM (inactive),72.8 µM (inactive)
CN(c1ccccc1)S(=O)(=O)c1ccccc1[N+](=O)[O-],75.2 µM (inactive),> 100 µM (inactive),97.5 µM (inactive),> 100 µM (inactive),39.8 µM (inactive),36.3 µM (inactive),> 100 µM (inactive),> 100 µM (inactive),> 100 µM (inactive),> 100 µM (inactive),98.4 µM (inactive),> 100 µM (inactive),57.9 µM (inactive),> 100 µM (inactive),> 100 µM (inactive),> 10 µM (inactive),> 100 µM (inactive),> 100 µM (inactive),81.3 µM (inactive),–
